In patent US20240365782A1, “USE OF 2-AMINO-3-METHYLHEXANOIC ACID IN PROMOTING PLANT GROWTH AND INCREASING YIELD” (NANJING AGRICULTURAL UNIVERSITY, priority 2021, published 2024):

Assays:
[1] = system: tomato seedlings; test: Stem and leaf treatment: growth of tomato seedlings; assay type: in vivo
Experimental: (§1) In 2021, an experiment was conducted in a Changshanxiang Mingyang family farm (standard greenhouse nursery base) in Zhangjiagang city, Jiangsu province. A strawberry variety to be tested was Hongyan, a tomato variety was Qianxi, and a hot pepper variety was Sujiao No. 5. 2-amino-3-methylhexanoic acid was taken, dissolved with distilled water, and diluted with the distilled water to obtain a solution of 100 nM (14.5 μg/L), a blank control was additionally set, and 0.02% Tween 20 as a surfactant and 14-hydroxylated brassinosteroid (Sichuan New Sun company) with the concentration of 37.5 μg/L as a control agent were added at the same time. Each treatment was repeated three times, the plot area was 20 m^2, and the liquid injection volume per plot was 1 L. The treatment method was foliage spray, an investigation was conducted on day 9 after the application, and the results were shown in Tables 3-5 and FIG. 3-FIG. 5.

[2] = system: Brevibacterium helvolum; settings: cited from earlier work
[3] = system: A. ureafaciens; settings: cited from earlier work
[4] = system: Pseudomonas aeruginosa; settings: cited from earlier work
[5] = system: S. marcescens; settings: cited from earlier work
[6] = system: hot pepper seedlings; test: Stem and leaf treatment: growth of hot pepper seedlings; assay type: in vivo
Experimental: as §1

[7] = system: Aerobacter aerogenes; settings: cited from earlier work
[8] = system: strawberry plants; test: Stem and leaf treatment: growth and yield of mature strawberry plants (field application); assay type: in vivo; settings: for Leaf number / Leaf width / Plant height: mature strawberry plants; for Mass of fruits per plant / Number of fruits per plant: strawberries; for Chlorophyll content: strawberry leaves
Experimental: (§2) 0.1 g of the rice leaves were accurately cut off for measuring the chlorophyll content. The rice leaves were extracted with 10 mL of an acetone ethanol extracting solution (80% acetone: 95% ethanol at a volume ratio of 1:1) for 24 hours in a dark place. A chlorophyll extracting stock solution was diluted by 3 times with the extracting solution as a reference solution, the light density values at wave lengths of 645 nm and 663 nm were measured with a spectrophotometer, and the chlorophyll content was calculated with a modifier formula of an Amnon method.
On Feb. 27, 2021, an experiment was conducted in a greenhouse of a farm of Baitu town, Jurong city, Jiangsu province, and the strawberry variety to be tested was Hongyan. The 2-amino-3-methylhexanoic acid was taken, dissolved with distilled water, and gradiently diluted with the distilled water to obtain solutions of 1,000 nM and 100 nM, a blank control was additionally set, and 0.02% Tween 20 as a surfactant was added at the same time. Each treatment was repeated three times, the plot area was 100 m^2, and the liquid injection volume per plot was 4.5 L. Three times of field application were conducted on February 27, March 3, and Mar. 8, 2021, respectively. The treatment method was foliage spray. The plant height, the leaf number, the leaf width, the number of fruits per plant, and the mass of fruits per plant were investigated on March 8. 0.2 g of strawberry leaves were cut off at the same time for measuring the chlorophyll content.

[9] = system: cucumber seedlings; test: Hydroponic treatment: rooting of radicle-removed cucumber seedlings; assay type: in vivo; settings: for Lateral root number / Root length: cucumber seedlings, 6 days
Excerpt: To further investigate a promoting effect of 2-amino-3-methylhexanoic acid on growth of plant roots, a model system for studying root generation, a radicle-removed cucumber seedling system, was selected. Four layers of wet gauze were spread on a bottom part of a seedling box, and healthy, full and uniform cucumber seeds (variety “Chuxiaqiuguan”, Ningyang County Luming Seed Co., Ltd., Shandong Province) were picked, washed with distilled water, uniformly spread on the gauze, and then covered with four layers of the wet gauze for keeping in a dark place. After kept in a dark place in a 25° C. culture room for 24 hours, the germinated cucumber seeds were taken out and buried in a position 1 cm below the soil, a plurality of plants with consistent growth vigor and completely unfolded two cotyledons were taken after 3 days, the roots were washed with the distilled water, the radicles were cut off, and the plants were fixed with sponge strips and placed in a centrifuge tube box. 400 mL of a 2-amino-3-methylhexanoic acid aqueous solution at concentrations of 0, 10, 100, and 1,000 nM, respectively was added to each box. The hydroponic plants were placed in the 25° C. culture room. After 6 days of light culture, the plants were taken out and the root length and number of newly generated roots were measured and recorded.

[10] = system: Achromobacter butyri; settings: cited from earlier work
[11] = system: Escherichia coli K-12; settings: cited from earlier work
[12] = system: P. fluorescens; settings: cited from earlier work
[13] = system: rice seedlings; test: Soaking seeds: effect on growth of rice seedlings; assay type: in vivo; settings: for Chlorophyll content: rice leaves; for Chlorophyll content improved compared with the blank control / Plant height improved compared with the blank control / Root fresh weight / Root fresh weight improved compared with the blank control / Root length / Root length improved compared with the blank control / Plant height: rice seedlings; for Plant height: 3 leaves and 1 heart stage
Experimental: Rice seeds (variety “Dengliangyou 2108”) were washed clean with distilled water, disinfected with 75% alcohol for 3 minutes, washed with the distilled water for 3 times, and then disinfected with NaClO (5%) for about 10 minutes, taken out, and washed with the distilled water. Residual water on the surfaces of the seeds was absorbed with clean filter paper until the surfaces were dry and clean. 50 g of the healthy, full and uniform seeds were picked and placed in 100-mL conical flasks. 50 mL of a 2-amino-3-methylhexanoic acid aqueous solution with the concentrations of 0 nM, 10 nM, 100 nM and 1,000 nM was added into each bottle respectively, the seeds were soaked for 5 days at room temperature and taken out, 100 rice seeds to be tested with a consistent germination state were respectively selected, uniformly sowed in a rice seedling tray, and covered with sterile nutrient soil, the seedling tray was placed in a culture room at 28° C., and when 3 leaves and 1 heart of the rice seedlings were grown, the plant height, the root length, the root fresh weight and the overground part fresh weight of the rice seedlings were respectively measured.
as §2
In the formula, Ch1a, Ch1b and Ch1t are the concentrations (mg/g·FW) of chlorophyll a, chlorophyll b and total chlorophyll, respectively; n is the dilution ratio; v is the volume of the extracting solution (L); m is the mass (g) of the leaves; and A663 and A645 are absorbance values of 663 nm and 645 nm, respectively.

[14] = system: Bacillus subtilis; settings: cited from earlier work
[15] = system: E. coli B; settings: cited from earlier work
[16] = system: strawberry seedlings; test: Stem and leaf treatment: growth of strawberry seedlings; assay type: in vivo
Experimental: as §1

[17] = foliage spray, day 9, 2-amino-3-methylhexanoic acid 14.5 μg/L (100 nM), 14-hydroxylated brassinosteroid 37.5 μg/L
[18] = mature strawberry plants, 1,000 nM
[19] = foliage spray, day 9, 2-amino-3-methylhexanoic acid 100 nM, 14-hydroxylated brassinosteroid 37.5 μg/L

CCCC(C)C(N)C(=O)O (stereo not shown) [2-amino-3-methylhexanoic acid]
Plant height improved compared with 14-hydroxylated brassinosteroid 37.5 μg/L ([1]; 14.5 μg/L): 76% | Plant height improved compared with the blank control ([1]; 14.5 μg/L): 84% | Root fresh weight improved compared with 14-hydroxylated brassinosteroid 37.5 μg/L ([1]; 14.5 μg/L): 16% | Root fresh weight improved compared with the blank control ([1]; 14.5 μg/L): 232% | Root length improved compared with 14-hydroxylated brassinosteroid 37.5 μg/L ([1]; 14.5 μg/L): 18% | Root length improved compared with the blank control ([1]; 14.5 μg/L): 38% | Plant height [1, 17]: 20.80 ± 0.21a cm | Root fresh weight [1, 17]: 4.05 ± 0.07a g | Root length [1, 17]: 5.39 ± 0.43a cm | Inhibitory effect [2]: no inhibitory effect | Inhibitory effect [3]: slight inhibitory effect | Inhibitory effect [4]: slight inhibitory effect | Inhibitory effect [5]: no inhibitory effect | Plant height improved compared with 14-hydroxylated brassinosteroid 37.5 μg/L ([6]; 14.5 μg/L): 37% | Plant height improved compared with the blank control ([6]; 14.5 μg/L): 60% | Root fresh weight improved compared with 14-hydroxylated brassinosteroid 37.5 μg/L ([6]; 14.5 μg/L): 35% | Root fresh weight improved compared with the blank control ([6]; 14.5 μg/L): 49% | Root length improved compared with 14-hydroxylated brassinosteroid 37.5 μg/L ([6]; 14.5 μg/L): 7% | Root length improved compared with the blank control ([6]; 14.5 μg/L): 46% | Plant height [6, 17]: 9.32 ± 0.32a cm | Root fresh weight [6, 17]: 4.67 ± 0.09a g | Root length [6, 17]: 4.53 ± 0.33a cm | Inhibitory effect [7]: no inhibitory effect | Chlorophyll content improved compared with the blank control [8, 18]: 21% | Leaf number improved compared with the blank control [8, 18]: 79% | Leaf width improved compared with the blank control [8, 18]: 32% | Plant height improved compared with the blank control [8, 18]: 49% | Leaf number ([8]; foliage spray 100 nM): 22.44 ± 4.32b leaf | Leaf width ([8]; foliage spray 100 nM): 5.33 ± 0.48b cm | Plant height ([8]; foliage spray 100 nM): 26.50 ± 3.60b cm | Leaf number ([8]; foliage spray 1,000 nM): 26.00 ± 4.76a leaf | Leaf width ([8]; foliage spray 1,000 nM): 6.59 ± 1.07a cm | Plant height ([8]; foliage spray 1,000 nM): 36.60 ± 3.28a cm | Mass of fruits per plant ([8]; foliage spray 100 nM): 29.06 ± 0.76b g | Number of fruits per plant ([8]; foliage spray 100 nM): 8.32 ± 0.47b fruit | Mass of fruits per plant ([8]; foliage spray 1,000 nM): 34.47 ± 0.58a g | Number of fruits per plant ([8]; foliage spray 1,000 nM): 9.72 ± 0.43a fruit | Chlorophyll content ([8]; foliage spray 100 nM): 3.50 ± 0.30ab mg/g · FW | Chlorophyll content ([8]; foliage spray 1,000 nM): 3.74 ± 0.65a mg/g · FW | Mass of fruits per plant improved compared to the blank control ([8]; strawberry plants, 1,000 nM): 44% | Number of fruits per plant improved compared to the blank control ([8]; strawberry plants, 1,000 nM): 39% | Lateral root number ([9]; hydroponic 10 nM): 16.00 ± 1.73a piece | Root length ([9]; hydroponic 10 nM): 2.04 ± 0.67b cm | Lateral root number ([9]; hydroponic 100 nM): 19.33 ± 1.53a piece | Root length ([9]; hydroponic 100 nM): 5.36 ± 0.82a cm | Lateral root number ([9]; hydroponic 1,000 nM): 14.33 ± 5.13a piece | Root length ([9]; hydroponic 1,000 nM): 4.50 ± 1.28a cm | Cucumber root length improved compared with the blank control ([9]; hydroponic 10 nM): 33% | Number of root generation improved compared with the blank control ([9]; hydroponic 10 nM): 182% | Cucumber root length improved compared with the blank control ([9]; hydroponic 100 nM): 199% | Number of root generation (lateral root number) improved compared with the blank control ([9]; hydroponic 100 nM): 241% | Cucumber root length improved compared with the blank control ([9]; hydroponic 1,000 nM): 154% | Number of root generation improved compared with the blank control ([9]; hydroponic 1,000 nM): 153% | Inhibitory effect [10]: slight inhibitory effect | Inhibitory effect [11]: remarkable inhibitory effect | Inhibitory effect [12]: no inhibitory effect | Chlorophyll content ([13]; seed soaking 10 nM): 3.60 ± 0.055b mg/g · FW | Chlorophyll content ([13]; seed soaking 100 nM): 3.82 ± 0.079a mg/g · FW | Chlorophyll content ([13]; seed soaking 1,000 nM): 3.63 ± 0.013b mg/g · FW | Chlorophyll content improved compared with the blank control ([13]; seed soaking 10 nM): 31% | Plant height improved compared with the blank control ([13]; seed soaking 10 nM): 9% | Root fresh weight ([13]; seed soaking 10 nM): 0.039 ± 0.002c g | Root fresh weight improved compared with the blank control ([13]; seed soaking 10 nM): 18% | Root length ([13]; seed soaking 10 nM): 8.34 ± 0.53b cm | Root length improved compared with the blank control ([13]; seed soaking 10 nM): 14% | Plant height ([13]; seed soaking 10 nM): 25.24 ± 0.82b cm | Chlorophyll content improved compared with the blank control ([13]; seed soaking 100 nM): 39% | Plant height improved compared with the blank control ([13]; seed soaking 100 nM): 29% | Root fresh weight ([13]; seed soaking 100 nM): 0.069 ± 0.007a g | Root fresh weight improved compared with the blank control ([13]; seed soaking 100 nM): 109% | Root length ([13]; seed soaking 100 nM): 9.30 ± 0.26a cm | Root length improved compared with the blank control ([13]; seed soaking 100 nM): 27% | Plant height ([13]; seed soaking 100 nM): 29.88 ± 0.16a cm | Chlorophyll content improved compared with the blank control ([13]; seed soaking 1,000 nM): 32% | Plant height improved compared with the blank control ([13]; seed soaking 1,000 nM): 13% | Root fresh weight ([13]; seed soaking 1,000 nM): 0.052 ± 0.003b g | Root fresh weight improved compared with the blank control ([13]; seed soaking 1,000 nM): 58% | Root length ([13]; seed soaking 1,000 nM): 8.30 ± 0.17b cm | Root length improved compared with the blank control ([13]; seed soaking 1,000 nM): 14% | Plant height ([13]; seed soaking 1,000 nM): 26.20 ± 0.32b cm | Inhibitory effect [14]: remarkable inhibitory effect | Inhibitory effect [15]: slight inhibitory effect | Plant height improved compared with 14-hydroxylated brassinosteroid 37.5 μg/L ([16]; 14.5 μg/L): 7% | Plant height improved compared with the blank control ([16]; 14.5 μg/L): 31% | Root fresh weight improved compared with 14-hydroxylated brassinosteroid 37.5 μg/L ([16]; 14.5 μg/L): 65% | Root fresh weight improved compared with the blank control ([16]; 14.5 μg/L): 70% | Root length improved compared with 14-hydroxylated brassinosteroid 37.5 μg/L ([16]; 14.5 μg/L): 24% | Root length improved compared with the blank control ([16]; 14.5 μg/L): 23% | Plant height [16, 19]: 7.00 ± 0.37a cm | Root fresh weight [16, 19]: 8.49 ± 0.12a g | Root length [16, 19]: 5.79 ± 0.36a cm
